Like-named read-outs stand apart in the source and are kept apart here.
Experiments:
[1] = test system: NCI-H522 cells; test: Cytotoxicity (methylene blue cell viability), NCI-H522; format: cell-based, human; conditions: Homo sapiens
Procedure: (§1) Having synthesized the CETZOLE analogs, their cytotoxic activity was evaluated. […] NCI-H522 RV-GFP is the corresponding control with RV-GFP tag, but without SLC7A11 overexpression. […] The cytotoxicity screening was conducted as described previously.
(§2) Cell lines were cultured in a humidified atmosphere containing 10% CO2 in Dulbecco's modified Eagle's medium (Mediatech, Inc) supplemented with 10% fetal bovine serum (Atlanta Biologicals). Cell types used MEFs, HT1080 (human fibrosarcoma cells), NARF2 (osteosarcoma), WI-38 (human embryonic lung fibroblast), MDA MB 231 (breast cancer), HCT-116 (human colon), and NCI-H522 (Non-Small Cell Lung Cancer) cell lines. To determine viability throughout these examples, 5,000 cells were plated per well of a 96-well plate and drugs were added 1 day later. Cells were stained 1 to 3 days later with a saturated solution of methylene blue in 50% ethanol. Plates were rinsed and retained dye was quantified by spectrophotometry. Absorbance was normalized to DMSO and given as 1 or 100% for cell viability. Results are representative of at least two independent experiments. Statistical significance was assessed using the Student's t test. All commercially available chemicals were obtained from Cayman Chemicals unless otherwise noted.

[2] = test system: HT-1080 cells; test: Cytotoxicity (methylene blue cell viability), HT-1080; format: cell-based, human; conditions: Homo sapiens
Procedure: as §1, §2

[3] = test system: MDA-MB-231 cells; test: Cytotoxicity (methylene blue cell viability), MDA-MB-231; format: cell-based; conditions: Homo sapiens
Procedure: as §1, §2

[4] = test system: NCI-H522 cells; format: cell-based; conditions: human, 3 days
Text: FIGS. 10A-10C: Results of live cell imaging.
FIG. 16: Evaluation of ferroptosis-inducing character of CETZOLE probes. A three-day ferroptosis rescue assay of NCI-H522 cells treated with DMSO, 1, RSL3, and CETZOLE analogs, and liproxstatin-1 co-treatment, showing significant ferroptosis inducing probes.
The live cell montage images in FIG. 10A show notable ferroptosis-related morphological changes, such as membrane breakage and floating cell debris in the medium. The NCI-H522 cell viability improved overall when cells were co-treated with the radical scavenger liproxstatin-1 (FIG. 10C). […] To confirm this, flow-cytometry was performed to quantify lipid peroxidation using redox-active BODIPY-C11 (FIGS. 11A-11E).
Overall, CETZOLE probes do induce radical-mediated cell death and are therefore indeed ferroptotic agents.
as §2, with “noted. Compound CETZOLE 1 and the analogs were synthesized as highlighted.” for “noted.”

[5] = test system: HeLa cells; test: Cellular localization of probes by bio-imaging; format: cell-based; conditions: 37° C. one hour, TAMRA-PEG-3-azide click
Procedure: FIGS. 17A-17E: Cellular localization of CETZOLE probes. […] Cells were incubated with the respective agent, permeabilized, subjected to TAMRA-PEG3 azide ligation, and viewed under microscope.
The thiazole alkyne pharmacophore undergoes thiol addition. Therefore, PPd is believed to interact covalently with the target protein, and the propargyl alkyne serves as a clickable bio-orthogonal handle for attaching reporter tags. On the other hand, PPe has a photoactivatable benzophenone moiety that covalently binds to the target protein(s) upon photo irradiation. Bio-imaging experiments were conducted to determine the spatial localization of CETZOLE probes in HeLa cells using fluorescent reporter tags. For this, HeLa cells were incubated with probe PPd and the negative control NPd (FIG. 17A) at 37° C. for one-hour. The cells were washed with cold PBS, fixed with formaldehyde (5%), permeabilized with triton-X, and subjected to bioorthogonal click reaction with TAMRA-PEG-3-azide in the presence of tris-hydroxypropyltriazolylmethylanine (THPTA), copper (II) sulfate (CuSO4), and sodium ascorbate. After multiple washings, cells were transferred on to a microscope viewing slide, stained with Hoechst dye, and observed under Olympus microscope (FIGS. 17C-17E).

[6] = test system: NCI-H522 GFP-SLC7A11 #8 cells; test: Cytotoxicity (methylene blue cell viability), NCI-H522 clone overexpressing GFP-SLC7A11; format: cell-based, human; conditions: Homo sapiens; Table 1; NCI-H522 clone overexpressing GFP-tagged SLC7A11; read-out: Half maximal inhibitory concentration (IC50), NCI-H522 GFP-SCL7A11 #8
Procedure: as §1, §2

[7] = test system: NCI-H522 RV-GFP cells; test: Cytotoxicity (methylene blue cell viability), NCI-H522 RV-GFP control clone; format: cell-based, human; conditions: Homo sapiens, NCI-H522; Table 1; control clone with RV-GFP tag; read-out: Half maximal inhibitory concentration (IC50), NCI-H522 Rv-GFP
Procedure: as §1, §2

[8] = test system: NARF2 cells; test: Cytotoxicity (methylene blue cell viability), NARF2; format: cell-based, human; conditions: Homo sapiens; Table 1; NARF2 osteosarcoma cells; read-out: Half maximal inhibitory concentration (IC50), NARF2
Procedure: as §1, §2

[9] = test system: WI38 cells; test: Cytotoxicity on normal cell line WI38; format: cell-based, human; conditions: Homo sapiens, WI-38; Table 2; lung tissue fibroblast; read-out: Half maximal inhibitory concentration (IC50), Normal Cell Line WI38
Procedure: (§3) To determine cytotoxicity at a therapeutically more relevant concentration, cells were treated at a single concentration of […] (FIG. 12).
as §2

[10] = test system: MEFs (Mouse Embryonic Fibroblasts); test: Cytotoxicity on normal cell line MEFs; format: cell-based; conditions: Fibroblast; Table 2; Mouse Embryonic Fibroblasts; read-out: Half maximal inhibitory concentration (IC50), Normal Cell Line Mefs
Procedure: as §3, §2

[11] = test system: NCI-H522 and HT-1080 cancer cell lines, WI38 and MEFs normal cell lines; test: Selective cytotoxicity assay at a single concentration; format: cell-based; set-up: dose or concentration left out as unconfirmed; conditions: NCI-H522, HT-1080, WI38, MEFs
Procedure: Overall, WI38 cells were the most tolerant to the treatment, whereas MEF cells were partially tolerant and relatively less sensitive than both NCI-H522 and HT-1080 cells. To determine cytotoxicity at a therapeutically more relevant concentration, cells were treated at a single concentration of […] (FIG. 12).
as §2, with “noted. Compound CETZOLE 1 and the analogs were synthesized as highlighted.” for “noted.”

[12] = test system: 60 human cancer cell lines; test: NCI 60 human cancer cell line assay, single dose; format: cell-based; conditions: single dose of 10 μM, 60 cell lines
Procedure: (§4) The cell lines used in this assay belonged to leukemia, non-small-cell lung cancer, colon cancer, CNS cancer, melanoma, ovarian cancer, renal cancer, prostate cancer, and breast cancer. The compounds were first tested at a single dose of 10 μM.

[13] = test system: renal cancer cell line UO-31; test: NCI 60 cell line assay, single dose, UO-31; format: cell-based, human; conditions: single dose of 10 μM
Procedure: as §4, with “μM. Analogue 20a was the most cytotoxic with a mean percentage growth of 1.24 (FIG. 13A). […] Analogs 20a and 23 were further tested in the NCI dose response assay ([…]).” for “μM.”

[14] = test system: renal cancer cell line 786-0; test: NCI 60 cell line assay, single dose, 786-0; format: cell-based, human; conditions: single dose of 10 μM
Procedure: as §4, with “μM. Analogue 20a was the most cytotoxic with a mean percentage growth of 1.24 (FIG. 13A). […] Analogs 20a and 23 were further tested in the NCI dose response assay ([…]).” for “μM.”

[15] = test system: ovarian cancer cell line IGROV1; test: NCI 60 cell line assay, single dose, IGROV1; format: cell-based, human; conditions: single dose of 10 μM
Procedure: as §4, with “μM. Analogue 20a was the most cytotoxic with a mean percentage growth of 1.24 (FIG. 13A). […] Analogs 20a and 23 were further tested in the NCI dose response assay ([…]).” for “μM.”

[16] = test system: leukemia, ovarian cancer, and renal cancer cell lines; test: NCI dose response assay; format: cell-based, human
Procedure: as §4

[17] = test system: NCI-H522, HT-1080, and MDA-MB-231 cells; test: Cytotoxicity screening of CETZOLE probes and negative controls; format: cell-based; conditions: 20 μM maximum concentration
Text: The benzophenone bromo-alkane 28e was obtained by selective EDC coupling of diaminobenzophenone 31 with 4-pentynoic acid 32 to obtain amide 33, followed by dropwise addition of bromoacetyl bromide 30 to a solution of 33 and TEA in DCM. To obtain intermediate 28f, Boc-protection of methyl 2-amino-5-bromobenzoate 34 to get 35, followed by installing an azide group at the para position employing Markiewicz and Helquist conditions, gave the azide 36. This was subjected to saponification followed by EDC coupling with propargyl amine 38 to obtain 39. Boc deprotection to get 40 was followed by acylation of the resulting amine with bromoacetyl bromide 30 afforded the bromo alkane 28f. They were screened for activity on NCI-H522, HT-1080, and MDA-MB-231 cells prior to using in target identification.
A similar cytotoxicity trend was observed on HT-1080 and MDA-MB-231 cancer cell lines.
Cell lines were cultured in a humidified atmosphere containing 10% CO2 in Dulbecco's modified Eagle's medium (Mediatech, Inc) supplemented with 10% fetal bovine serum (Atlanta Biologicals). […] Plates were rinsed and retained dye was quantified by spectrophotometry. Absorbance was normalized to DMSO and given as 1 or 100% for cell viability. […] Statistical significance was assessed using the Student's t test. […]

[18] = NCI-H522, Table 3, probes and negative controls, read-out: IC50, NCI-H522
[19] = HT-1080, Table 3, probes and negative controls, read-out: IC50, HT-1080
[20] = MDA-MB-231, Table 3, probes and negative controls, read-out: IC50, MDA-MB-231

Compound: C#CCO/N=C1\CC(c2csc(C#C)n2)=C(C)C1O (centres unmarked) [PPd, 4-(2-Ethynylthiazol-4-yl)-2-hydroxy-3-methylcyclopent-3-en-1-one 0-prop-2-yn-1-yl oxime]
- IC50 [1, 18]: 2310 ± 1080 nM
- IC50 [2, 19]: 1170 ± 120 nM
- IC50 [3, 20]: 2700 ± 720 nM
- cell viability on liproxstatin-1 co-treatment (rescue) [4]: 75%
- spatial localization of probe [5]: intense intracellular aggregation of probe in the nucleus and vacuoles

Compound: C#Cc1nc(C2=C(C)C(OC(C)=O)/C(=N/OC(C)=O)C2)cs1 (centres unmarked) [compound 20a, (E)-5-(Acetoxyimino)-3-(2-ethynylthiazol-4-yl)-2-methylcyclopent-2-en-1-yl acetate]
- IC50 ([1]; NCI-H522, Table 2, read-out: Half maximal inhibitory concentration (IC50), Cancer Cell Line NCI-H522): 170 ± 80 nM
- IC50 ([1]; Table 1, NCI-H522 cancer cell line, read-out: Half maximal inhibitory concentration (IC50), NCI-H522): 170 ± 80 nM
- IC50 [6]: 1590 ± 490 nM
- IC50 [7]: 260 ± 110 nM
- IC50 ([2]; HT-1080, Table 2, read-out: Half maximal inhibitory concentration (IC50), Cancer Cell Line HT1080): 140 ± 60 nM
- IC50 ([2]; Table 1, HT-1080 fibrosarcoma cell line, read-out: Half maximal inhibitory concentration (IC50), HT-1080): 140 ± 60 nM
- IC50 [8]: 7260 ± 2010 nM
- IC50 ([3]; Table 1, MDA-MB-231 breast cancer cell line, read-out: Half maximal inhibitory concentration (IC50), MDA-MB-231): 230 ± 20 nM
- IC50 [9]: 1530 ± 360 nM
- IC50 [10]: 120 ± 60 nM
- cell viability on liproxstatin-1 co-treatment (rescue) [4]: 60%
- cell death at a single concentration [11]: killed only the cancer cell lines NCI-H522 and HT-1080
- mean percentage growth [12]: 1.24
- percentage growth, UO-31 [13]: −95%
- percentage growth, 786-0 [14]: −95%
- percentage growth, IGROV1 [15]: −95%
- sensitivity of cell lines in dose response assay [16]: particularly sensitive

Compound: C#Cc1nc(C2=C(C)C(=O)/C(=N/OCC(=O)Nc3ccc4oc(=O)c(C)cc4c3)C2)cs1 [PPc, (E)-2-(((4-(2-Ethynylthiazol-4-yl)-3-methyl-2-oxocyclopent-3-en-1-ylidene)amino)oxy)-N-(3-methyl-2-oxo-2H-chromen-6-yl)acetamide]
- IC50 [1, 18]: > 20000 nM
- IC50 [2, 19]: > 20000 nM
- IC50 [3, 20]: > 20000 nM
- cytotoxicity at maximum concentration tested [17]: did not induce any cytotoxicity
